In patent publication US20240285627A1, “DRUG COMBINATION OF FAK INHIBITOR AND IMMUNOGENIC CELL DEATH INDUCER AND USE THEREOF” (INXMED (NANJING) CO., LTD., priority 2022, published 2024):

How the values were obtained:
Format in all cases: cell-based
[1] = system: Mouse colon cancer CT26 cells; experiment: Induction of immunogenic cell death targets by Crizotinib and IN10018 in CT26 cells (Example 7); conditions: CT26, 48 hours; IN10018 5 μM, Crizotinib 3 μM
Procedure: CT26 cells were cultured in monolayer in vitro, and the culture conditions were: RPMI-1640 medium with 10% fetal bovine serum, 37° C. and 5% CO2. Trypsin was used for routine digestion and passage treatment two or three times a week. When the cells were in exponential growth period and the adherent confluence reached 80%-90%, the cells were collected and plated.
CT26 cells were digested with trypsin, then collected and counted. According to the counting results, the cells were diluted with RPMI-1640+10% FBS, and the dilution concentration was 50,000 cells per ml. Then, the cells were plated on 24-well culture plates, and 1 ml of cell suspension (50,000 cells) was laid in each well. After plating, the cells were cultured in 37° C. and 5% CO2 incubator. […]
After the cells were washed twice with flow buffer (DPBS+2% FBS), the cells in each group were divided into two parts on average, one of which was added with 0.5 μl of AF647 anti-Calreticulin antibody in each well, then mixed well, and incubated in the dark for 20 minutes at 4° C. […] The cells were cultured at room temperature in the dark for 15 minutes, and then analyzed by flow cytometry.
Data analysis: After the assay, the cell positive rate was analyzed by Flowjo(V10) software.

[2] = system: Mouse colon cancer CT26 cells; experiment: Proliferation of CT26 cells, CCK8, Lurbinectedin with or without IN10018 (Example 1); conditions: 72 hours, combination group: 6 μM IN10018 added to each well
Procedure: Mouse colon cancer CT26 cells (Insitute of Biochemistry and Cell Biology) were cultured with RPMI-1640 (Shanghai Basalmedia, classification number: L210KJ, batch number: F210916)+10% FBS (Gibco, classification number: 10099-141c, batch number: 2158737cp) and passaged twice. When the cells were in good condition, the culture solution was placed in a 96-well plate with 3000 cells/well. After the cells were spread for 24 hours, a culture medium containing Lurbinectedin (DC chemicals, classification number: DC12502, batch number: DC1250203) was added. 10 drug action concentrations were set, wherein the first concentration was 0.1 μM, which was serially diluted 4 times, and the last concentration was a control with a drug concentration of 0. Each drug concentration was set in triplicate. At the same time, another group of cells was established with the same drug concentration as the above method. The difference was that 6 μM IN10018 was added to each well. The drugs were mixed and the mixture was cultured in a 5% CO2 incubator at 37° C. for 72 hours.
After 72 hours of drug action, the cells were observed under a microscope, and 10 μl of CCK8 detection reagent (Cellorlab, classification number: CX001M, batch number: 2571100) was added to each well. […] Then the plate was read with a microplate reader OD450 ([…]).

[3] = system: Mouse colon cancer CT26 cells; experiment: CT26 cells with IN10018 and Lurbinectedin: microscope and flow cytometry for CRT / Annexin V (Example 2); conditions: CT26, 48 hours; IN10018 5 μM, Lurbinectedin 0.00142 μM
Procedure: Mouse colon cancer CT26 cells (Insitute of Biochemistry and Cell Biology) were cultured with RPMI-1640 (Shanghai Basalmedia, classification number: L210KJ, batch number: F210916)+10% FBS (Gibco, classification number: 10099-141c, batch number: 2158737cp) and passaged twice. When the cells were in good condition, the culture solution was placed in a 24-well plate. After the cells were spread for 24 hours, four groups were set up, wherein the first group was a control group, and the culture medium was added; the second group was IN10018 with a concentration of 5 μM; the third group was Lurbinectedin (DC chemicals, classification number: DC12502, batch number: DC1250203) with a concentration of 0.00142 μM; and the fourth group was IN10018 (5 μM) combined with Lurbinectedin (0.00142 μM). The drugs were mixed and the mixture was cultured in a 5% CO2 incubator at 37° C. for 48 hours.
After 48 hours of drug action, the cells were observed under a microscope and photographed, and the photos were kept. Then the cells were collected, subjected to flow analysis, and washed twice with flow buffer (PBS+2% FBS). 0.5 μl of AF647 anti-Calreticulin antibody (abcam, classification number: ab196159, batch number: CR33676773) was added to each well and fully mixed. […] The mixture was cultured at room temperature in the dark for 15 minutes, and then analyzed by flow cytometry.

Compound	cell state under a microscope (cell death; cell viability) [1]	IC50 [2]	cell state under a microscope [3]
C[C@@H](Oc1cc(-c2cnn(C3CCNCC3)c2)cnc1N)c1c(Cl)ccc(F)c1Cl [Crizotinib]	cell death was obvious	–	–
COc1ccc2[nH]c3c(c2c1)CCN[C@]31CS[C@@H]2c3c(OC(C)=O)c(C)c4c(c3[C@H](COC1=O)N1[C@@H]2[C@H]2c3c(cc(C)c(OC)c3O)C[C@@H]([C@@H]1O)N2C)OCO4 [Lurbinectedin]	–	0.71 nM	poor
